Reference: patent US20240425812A1, “HYPOVENTILATION PHYSICAL MODELS AND APPLICATIONS THEREOF” (The University of Hong Kong, priority 2023, published 2024)

Columns and labels:
HBSO neurons = experiment: Multi-electrode array (MEA) analysis of dissociated day 60 HBSO neurons; format: cell-based, human; conditions: 10 μM, applied immediately before recording
Method: The functionality of HBSO neurons, particularly their responses to hypercapnia, is further assessed using multi-electrode array (MEA) analyses. Briefly, Day 60 HBSOs arc dissociated with Papain Dissociation System (Worthington, LK003150) following the manufacturer's protocol. In brief, the HBSOs are digested with the papain solution in 37° C. incubator for 30 min with continuous shaking at 90 r.p.m. and then triturated with P1000 pipette. The triturated HBSOs are further digested in 37° C. incubator for an additional 10 min and then filtered through 40 μm cell strainer (Corning, 352340) to remove undigested cell debris. The dissociated cells are collected by centrifuging at 300×g for 5 min at room temperature. The cells are then resuspended with DNase/ovomucoid inhibitor solution to stop the digestion. […] MEA recordings are measured at 37° C. with 5-8% CO2 in a Maestro Edge MEA System (Axion Biosystems) to detect spontaneous firing of spikes. The MEA plate is pre-equilibrated in the MEA system for at least 5 min before measurement and each treatment is recorded for 5-10 min to calculate the mean spike firing rate. […] The MEA recordings are analyzed using the Neural Module of AxIS Navigator 1.5 software and the Neural Metric Tool software (Axion Biosystems). […]

HBSOs = experiment: HBSO differentiation with WNT antagonist added on days 3-6 (growth, RT-qPCR of patterning markers at day 20); format: cell-based, human
Method: To generate HSBOs, hPSCs are dissociated into single cell suspension by treating with 0.5 mM EDTA solution in DPBS and then Accutase as described above. 2.7×10^6 cells are seeded to a well of AggreWell800 24-well plate (STEMCELL Technologies, 34815) which contained 300 microwells per well (i.e. 9,000 cells per microwell). The cells are kept in mTeSR1 with 10 μM Y-27632 overnight in 37° C. incubator for the spheroid formation and they are marked as day 0 at this stage. At day 1, the spheroids from one well of Aggre Well800 are split into 3 wells of 6-well ultra-low-attachment plate containing Neural Induction Medium (DMEM/F12, 1% N2 supplement (v/v), 1% GlutaMAX supplement (v/v), 1% MEM-NEAA (v/v) and 1 μg ml^−1 Heparin) supplemented with BMP inhibitor LDN-193189 (1 μM) and TGF-β inhibitor SB431542 (10 μM). […]
Total RNA from HCOs and HBSOs are extracted by RNeasy Mini Kit (Qiagen) and the RNA concentrations are determined by Nanodrop 1000 Spectrophotometer (Thermo Fisher Scientific). […] Fluorescence is measured by ViiA 7 Real-Time PCR System (Thermo Fisher Scientific) at the end of each cycle. […]

NCCc1c[nH]c2ccc(O)cc12 [5-HT, serotonin]
firing of HBSO neurons (HBSO neurons; FIG. 1J): capable of enhancing the firing

O=C(Nc1cccc2cccnc12)c1ccc(N2C(=O)[C@@H]3[C@H](C2=O)[C@@H]2C=C[C@H]3C2)cc1 [IWR1-endo]
favoring the dB2 domain formation (PHOX2B expression) (HBSOs; 1 μM or 10 μM, day 20 RT-qPCR, FIG. 1D): does not provide additional benefits | growth of the HBSOs (HBSOs; 10 μM): inhibited the growth

CC1CCN(CC[C@H]2CCCN2S(=O)(=O)c2cccc(O)c2)CC1 [SB269970]
hypercapnia responses of HBSO neurons (HBSO neurons; FIG. 1K): counteraction of these responses
